Where a name gives a salt, the structure may show the parent alone. Read-outs that look alike come from different tables or passages of the source.
Experiments:
[1] = molecular target: Hco-26/27 receptor (Haemonchus contortus, UniProt A9XX30+S4VAP0); assay: cell-based
From the text: In order to investigate if the overlapping expression contributed to functional receptors, we co-expressed Hco-ACR-26 and Hco-ACR-27 in Xenopus laevis oocytes. We have previously reported that the functional expression of nematode muscle AChRs in Xenopus oocytes requires the addition of ancillary proteins. Therefore, cRNAs encoding the subunits Hco-ACR-26 and Hco-ACR-27, in combination with three ancillary proteins (Hco-ric-3.1, Hco-unc-74 and Hco-unc-50) were co-injected into Xenopus oocytes. […] Subsequently, different cRNA combinations were injected into Xenopus oocytes in order to determine the minimal subunit combination leading to the expression of a functional receptor and verify the ancillary factor requirement.
The subunit stoichiometry has been previously reported to impact the pharmacological properties of some nematode AChRs expressed in Xenopus oocytes.
H. contortus and P. equorum acr-26 and acr-27 cDNAs were PCR-amplified using primers containing a restriction site in order to be sub-cloned into the expression vector pTB207 that is suitable for in vitro transcription. Primers are listed in S3 Table. The resulting plasmids were linearized with the NheI restriction enzyme (Fermantas) and used as templates for cRNA synthesis using the T7 mMessage mMachine kit (Ambion). Xenopus laevis ovaries were obtained from the University of Rennes, France (CRB Xenope) and defolliculated using 2 mg/ml collagenase type II (Gibco) in the incubation solution containing: 100 mM NaCl, 2 mM KCl, 1.8 mM CaCl2.2H2O, 1 mM MgCl2.6H2O, 5 mM HEPES, 2.5 mM C3H3NaO3, pH 7.5, supplemented with penicillin 100 U/mL and streptomycin 100 μg/mL). The oocytes were injected in the animal pole with a total volume of 36 nL of cRNA mix containing 50 ng/μL of each cRNA in RNase-free water using the Drummond nanoject II microinjector. Microinjected oocytes were kept at 20°C in incubation medium for 4 days to allow the receptors expression. Two-electrode voltage-clamp recordings were carried out using an Oocyte Clamp OC-725C amplifier (Warner instrument) in oocytes being voltage-clamped at -60mV. All agonist preparations were prepared with recording buffer (100 mM NaCl, 2.5 mM KCl, 1 mM CaCl2.2H2O, 5 mM HEPES, pH 7.3). Currents were recorded and analyzed using the pCLAMP 10.4 package (Molecular Devices).

[2] = tested on: C. elegans expressing Hco-26/27; assay: Thrashing assay on transgenic C. elegans expressing Hco-26/27; assay type: in vivo, Caenorhabditis elegans
From the text: (§1) Taking advantage of the absence of acr-26 and acr-27 homologs in the C. elegans genome, we used wild type N2 worms to express these two parasitic nematode AChR subunits. […] For Peq-ACR-26 and Peq-ACR-27, even though the localization of these subunits in Parascaris equorum remains to be investigated in more detail, we also used myo3 as a promoter in order to compare the functional impact of Hco-26/27 and Peq-26/27 on both motility and drug sensitivity in transgenic C. elegans.
(§2) Worms were maintained at 20°C on nematode growth medium (NGM) plates and fed on a bacterial lawn (Escherichia coli OP50). Bristol N2 was used as a reference wild-type C. elegans strain. Dose-response assays were performed on gravid adults placed in wells of a 96-well plate containing M9 salt solution (3 g/L KH2PO4, 6 g/L Na2HPO4, 5 g/L NaCl, and 1 mM MgSO4 with BSA at 0.1%) with varying anthelmintic concentrations. After 10 min, worm thrashing was counted for 1 min. A thrash was defined as a change in the direction of bending at the mid-body to return to the initial position. For each drug concentration, 30 worms were tested. Hco-acr-26, Hco-acr-27, Peq-acr-26 and Peq-acr-27 coding sequences were sub-cloned into the pPD96.52 (Addgene) vector containing the muscle promoter Pmyo3. Primer sequences containing the suitable restriction sites are listed in S3 Table. Extrachromosomal transgenic strains of C. elegans were obtained by micro-injecting DNA into the gonads of young adult hermaphrodite worms as described. N2 worms were injected with different mixes containing Pmyo3::Hco-acr-26; Pmyo3::Hco-acr-27; Pmyo3::Peq-acr-26; Pmyo3::Peq-acr-27 alone or in combination (Pmyo3::Hco-acr-26 + Pmyo3::Hco-acr-27 or Pmyo3::Peq-acr-26 + Pmyo3::Peq-acr-27) with a final concentration of 40 ng/μl for each plasmid. The plasmid pPD118.33_Pmyo2::gfp (Addgene) was co-injected at 25 ng/μl as a transformation marker. […] Thrashes produced by each worm during 1 minute were counted after a 10 minutes equilibration period. After drug application, thrashes were counted after 10, 20 and 30 minutes of exposure. […]

[3] = tested on: C. elegans N2; assay: Dose-response thrashing assay on wild-type C. elegans N2; assay type: in vivo, Caenorhabditis elegans; settings: for Minimal drug concentration causing significant reduction in wild-type motility: 10 min exposure
Protocol: Worms were maintained at 20°C on nematode growth medium (NGM) plates and fed on a bacterial lawn (Escherichia coli OP50). Bristol N2 was used as a reference wild-type C. elegans strain. Dose-response assays were performed on gravid adults placed in wells of a 96-well plate containing M9 salt solution (3 g/L KH2PO4, 6 g/L Na2HPO4, 5 g/L NaCl, and 1 mM MgSO4 with BSA at 0.1%) with varying anthelmintic concentrations. After 10 min, worm thrashing was counted for 1 min. A thrash was defined as a change in the direction of bending at the mid-body to return to the initial position. For each drug concentration, 30 worms were tested. Hco-acr-26, Hco-acr-27, Peq-acr-26 and Peq-acr-27 coding sequences were sub-cloned into the pPD96.52 (Addgene) vector containing the muscle promoter Pmyo3. Primer sequences containing the suitable restriction sites are listed in S3 Table. Extrachromosomal transgenic strains of C. elegans were obtained by micro-injecting DNA into the gonads of young adult hermaphrodite worms as described. N2 worms were injected with different mixes containing Pmyo3::Hco-acr-26; Pmyo3::Hco-acr-27; Pmyo3::Peq-acr-26; Pmyo3::Peq-acr-27 alone or in combination (Pmyo3::Hco-acr-26 + Pmyo3::Hco-acr-27 or Pmyo3::Peq-acr-26 + Pmyo3::Peq-acr-27) with a final concentration of 40 ng/μl for each plasmid. The plasmid pPD118.33_Pmyo2::gfp (Addgene) was co-injected at 25 ng/μl as a transformation marker. For each mixes, at least two independent lines were generated. For each line, thrashing assays were carried on at least 12 F1-worms carrying the selection marker. L4 larvae from N2 and transformed worms were transferred one day before the thrashing assay on NGM plate. One young adult was placed in each well of a 12-well plate containing M9 salt buffer. Thrashes produced by each worm during 1 minute were counted after a 10 minutes equilibration period. After drug application, thrashes were counted after 10, 20 and 30 minutes of exposure. Experimental data are shown as mean ± SEM. Statistical comparisons were done using the paired or unpaired Student’s t test or one-way ANOVA with Tukey’s multiple comparison test. A level of p<0.05 was considered significant. For each line, expression of the introduced acr-26 and/or acr-27 coding sequences from H. contortus or P. equorum was confirmed by RT-PCR experiments performed on 12 pooled worms. A partial sequence corresponding to the C. elegans endogenous AChR unc-38 transcript was amplified with primers designed on two independent exons in order to control the cDNA template quality. Primer sequences are listed in S3 Table.
Supplementary file ppat.1005267.s004.tif: S4 Fig Thrashing assays performed on C. elegans (N2) with different anthelmintic molecules. […] Thrashes of gravid wild-type adults were counted for one minute after 10 minutes of drug exposure. […] Results are expressed as mean ± SEM derived from three independent sets of experiments. For each treatment, 30 worms were included in the analysis. […] Statistical analyses were performed using a One-Way Anova with Tukey’s Multiple Comparison Test with **p<0.01, ***p<0.001. (TIF) Click here for additional data file.

[4] = tested on: C. elegans expressing Peq-26/27; assay: Thrashing assay on transgenic C. elegans expressing Peq-26/27; assay type: in vivo, Caenorhabditis elegans
From the text: as §1, §2

[5] = read-out: Current elicited, % of ACh response, 100 μM agonist, normalized to 100 μM ACh current, equal subunit ratio
[6] = read-out: Relative maximal current (Imax) normalized to 100 μM acetylcholine, cRNA ratio 1:1 26/27, 100 μM agonist
[7] = read-out: Relative maximal current (Imax) normalized to 100 μM acetylcholine, cRNA ratio 1:5 26/27, 100 μM agonist
[8] = read-out: Relative maximal current (Imax) normalized to 100 μM acetylcholine, cRNA ratio 5:1 26/27, 100 μM agonist
[9] = 50 μM Pyr, 10 minutes of drug exposure
[10] = Caenorhabditis elegans, 10 min, 10 min drug exposure, gravid adults, read-out: IC50 (reduction of thrashing)

Chain of Hco-26/27 receptor (A9XX30 entry or part of it): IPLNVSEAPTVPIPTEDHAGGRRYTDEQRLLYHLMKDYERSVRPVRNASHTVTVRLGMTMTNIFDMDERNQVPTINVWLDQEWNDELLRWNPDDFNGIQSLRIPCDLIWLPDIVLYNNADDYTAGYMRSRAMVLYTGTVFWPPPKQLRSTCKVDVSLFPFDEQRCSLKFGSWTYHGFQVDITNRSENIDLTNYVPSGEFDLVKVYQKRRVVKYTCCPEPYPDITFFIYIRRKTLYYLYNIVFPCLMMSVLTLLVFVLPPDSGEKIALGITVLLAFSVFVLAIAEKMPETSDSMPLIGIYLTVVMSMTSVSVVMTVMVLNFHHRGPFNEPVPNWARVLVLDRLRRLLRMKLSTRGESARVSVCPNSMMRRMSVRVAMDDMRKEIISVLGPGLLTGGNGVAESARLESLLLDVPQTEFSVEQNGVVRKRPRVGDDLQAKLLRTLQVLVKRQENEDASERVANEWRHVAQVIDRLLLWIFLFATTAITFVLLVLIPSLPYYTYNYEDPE
Chain of Hco-26/27 receptor (S4VAP0 entry or part of it): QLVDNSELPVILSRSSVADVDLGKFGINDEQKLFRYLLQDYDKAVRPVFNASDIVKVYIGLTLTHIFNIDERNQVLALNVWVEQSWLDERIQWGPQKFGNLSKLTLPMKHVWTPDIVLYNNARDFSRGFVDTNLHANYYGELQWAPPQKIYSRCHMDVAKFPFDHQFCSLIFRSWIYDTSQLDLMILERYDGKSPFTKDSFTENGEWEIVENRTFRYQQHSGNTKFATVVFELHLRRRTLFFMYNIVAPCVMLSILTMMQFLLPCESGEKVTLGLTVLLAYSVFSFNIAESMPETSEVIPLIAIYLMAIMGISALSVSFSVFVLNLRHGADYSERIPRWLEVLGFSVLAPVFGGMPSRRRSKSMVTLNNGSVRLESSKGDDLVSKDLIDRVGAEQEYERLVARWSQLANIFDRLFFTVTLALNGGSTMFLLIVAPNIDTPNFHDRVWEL

| SMILES | EC50 [1] | Imax reduction with fivefold increase of Hco-ACR-27 versus equal subunit ratios ([1]; 100 μM, p<0.001) | Emax at 100 µM [1, 5] | Emax at 100 µM [1, 6] | Emax at 100 µM [1, 7] | Emax at 100 µM [1, 8] | Reduction of thrashing motility ([2]; 40 μM Mor, 10 minutes exposure) | Minimal drug concentration causing significant reduction in wild-type motility [3] | IC50 ([3]; Caenorhabditis elegans, 10 min, read-out: IC50 (reduction of thrashing), 10 min drug exposure, gravid adults) | IC50 ([3]; read-out: IC50 (reduction of thrashing), 10 min drug exposure, gravid adults) | Reduction of thrashing motility ([4]; 40 μM Mor, 10 minutes exposure) | Percentage reduction of thrashes min^-1 [2, 9] | IC50 [3, 10] | Percentage reduction of thrashes min^-1 [4, 9] | Current elicited, % of ACh response ([1]; 100 μM agonist, normalized to 100 μM ACh current, equal subunit ratio) | Change in sensitivity versus N2 ([2]; 5 μM Lev) | Change in sensitivity versus N2 ([4]; 5 μM Lev) |
| --- | --- | --- | --- | --- | --- | --- | --- | --- | --- | --- | --- | --- | --- | --- | --- | --- | --- |
| Cc1ccsc1/C=C/C1=NCCCN1C [Mor, morantel] | 29 ± 1.3 µM | 2 fold | 249 ± 11.5% | 249 ± 11.5% | 137 ± 19.7% | 265 ± 29.1% | 93.3% | 40 µM | 44 ± 1.03 µM | 44.1 ± 1 µM | 62.7% |  |  |  |  |  |  |
| CN1CCCN=C1/C=C/c1cccs1 [Pyr, pyrantel] | 6.8 ± 1.3 µM |  | 81 ± 6.21% | 81 ± 6.21% | 83.1 ± 17.9% | 84.1 ± 8.54% |  | 50 µM |  |  |  | 65.4% | 107 ± 1.2 µM | 61.6% |  |  |  |
| c1ccc([C@H]2CN3CCSC3=N2)cc1 [Lev, (-)-tetramisole hydrochloride] |  |  |  | 3.46 ± 1.44% | 4.18 ± 2.89% | 1.77 ± 1.77% |  | 5 µM |  |  |  |  | 7 ± 1.1 µM |  | insensitive | no significant change | no significant change |

— paper PMC4666645 (PLoS Pathogens, 2015)
